Test results taken from patent publication US4859673A, “Amide derivatives and antiallergic agents containing the same” (Terumo Kabushiki Kaisha, priority 1986, dated 1989).

Test system: passive cutaneous anaphylaxis reaction (PCA reaction)
Test: PCA reaction-inhibitory effects in rats (passive cutaneous anaphylaxis, oral administration)
Format: in vivo, Female Sprague-Dawley strain rats
Conditions: 1 hour before challenge
Method: DNP-ascaris (1 mg) prepared by combining a swine ascaris extract with 2,4-dinitrophenyl sulfate was mixe with 20 mg of aluminum hydroxide gel. The mixture was administered to rats subcutaneously on the back, and at the same time the animals were intraperitoneally given 2×10^10 dead Bordetella pertussis respectively. The same procedures were repeated after 14 days, and blood sample was obtained after 21 days to produce antisera.
Female Sprague-Dawley strain rats (8 weeks old) were sensitized by subcutaneously administering 0.1 ml of 1:256 diluted antisera (titer=1024)respectively on the grained back. After 48 hours, groups of four rats were orally given the amide derivatives produced in the examples above at various concentrations. After one hour, the rats were challenged by intravenously administering a 0.5% physiological saline solution of Evans Blue containing 1 mg of the NDP-ascaris from the tail. After 30 minutes, the animal was sacrificed by bleeding and the portion of the skin with the dye exuded was cut off. The cut skin was treated with 1N-KOH solution, and the dye was extracted by adding 9 ml of 0.6N-phosphoric acid-acetone (5:13) mixture. The supernatant from centrifugal separation was measured for absorbancy at 620 nm to determine amount of the dye. Percent inhibition at each of the concentrations of the amide derivatives was calculated in comparison with amount of the dye for control group. Results are shown in Table-I. Percent inhibition of tranilast, an antiallergic agent commercially available from Kissei Pharmaceutical Co., Ltd. under the trade name of Rizaben against PCA reaction was also shown in Table-I. As shown in Table-I, the amide derivatives of the invention produced high PCA reaction-inhibitory effects.

Compound | Inhibition (%) mean ± SE, PCA reaction (30 mg/kg) [%] | Inhibition (%) mean ± SE, PCA reaction (100 mg/kg) [%] | Inhibition (%) mean ± SE, PCA reaction (10 mg/kg) [%] | Inhibition (%) mean ± SE, PCA reaction (200 mg/kg) [%] | Inhibition (%) mean ± SE, PCA reaction (300 mg/kg) [%]
COc1cc(/C=C/C=C/C(=O)NCCN2CCC(OC(c3ccccc3)c3ccccc3)CC2)ccc1OCc1ccccc1 [Example 1, 1-[2-(5-(3-methoxy-4-benzyloxyphenyl)-2,4-pentadienoyl)aminoethyl]-4-diphenylmethoxypiperidine] | 0 ± 20 | 50 ± 14 | – | – | –
COc1cc(/C=C/C=C/C(=O)NCCN2CCC(OC(c3ccccc3)c3ccccc3)CC2)ccc1OC1CCCO1 (stereo not drawn) [Example 2, 1-[2-(5-(3-methoxy-4-(2-tetrahydrofuranyl)oxyphenyl)-2,4-pentadienoyl)aminoethyl]-4-diphenylmethoxypiperidine] | 71 ± 6 | – | 51 ± 18 | – | –
COc1ccc(/C=C/C(=O)Nc2ccccc2C(=O)O)cc1OC [Tranilast, reference compound] | – | 37 ± 8 | – | 40 ± 10 | 42 ± 5
CCOCOc1ccc(/C=C/C=C/C(=O)NCCN2CCC(OC(c3ccccc3)c3ccccc3)CC2)cc1OC [Example 3, 1-[2-(5-(3-methoxy-4-ethoxymethoxyphenyl)-2,4-pentadienoyl)aminoethyl]-4-diphenylmethoxypiperidine] | 55 ± 9 | 78 ± 8 | – | – | –
